# “And” between values parts separate entries of the source, which are not always exact repeats. Identical values can stand only once.
# Test system: WM3248 melanoma cells, 486 antibodies
# Test: Reverse phase protein arrays (RPPA)
# Assay type: cell-based, Human
# Excerpt: Pellets were snap frozen in liquid nitrogen and shipped to MD Anderson Cancer Center core RPPA facility for RPPA analysis (Table S5). Three biological replicates for each sample were generated.
# Nomenclatures on the RPPA heatmaps: name_of_antibody.species_of_antibody.status_of_antibody. V - antibody validated; C - validation of antibody in progress; Q - antibody nonspecific; E – under evaluation; antibodies raised in M - mouse, G - goat, R - rabbit, or T - rat.
structure (smiles),measurement,setting,value
"CN(C)c1cccc(Nc2cc(-c3ccccc3)nc(C3CCNCC3)n2)c1 [ARN22089, N1,N1-dimethyl-N3-(6-phenyl-2-(piperidin-4-yl)pyrimidin-4-yl)benzene-1,3-diamine]",CD31.M.V normalized signal,Norm_10 Average,0.960
same,CD38.R.C normalized signal,Norm_10 Average,0.936
same,CD45.M.V normalized signal,Norm_10 Average,0.964
same,CD68.M.C normalized signal,Norm_10 Average,1.001
same,CD134.R.V normalized signal,Norm_10 Average,0.970
same,CD171.M.V normalized signal,Norm_10 Average,0.831
same,CDK1_pT14.R.C normalized signal,Norm_10 Average,0.888
same,CDK9.R.V normalized signal,Norm_10 Average,0.988
same,CDKN2A.R.C normalized signal,Norm_10 Average,0.963
same,CDT1.R.V normalized signal,Norm_10 Average,0.925
same,CENP.A.R.V normalized signal,Norm_10 Average,0.967
same,CHD1L.R.V normalized signal,Norm_10 Average,1.025
same,COG3.R.V normalized signal,Norm_10 Average,1.013
same,CRABP1.R.C normalized signal,Norm_10 Average,0.993
same,CRABP2.R.V normalized signal,Norm_10 Average,0.915
same,CSK.R.C normalized signal,Norm_10 Average,0.971
same,Calnexin.R.V normalized signal,Norm_10 Average,1.021
same,Caspase.3.cleaved.R.C normalized signal,Norm_10 Average,0.926
same,Caspase.7.cleaved..R.C normalized signal,Norm_10 Average,1.030
same,Caspase.8.M.Q normalized signal,Norm_10 Average,0.998
same,Caspase.8.cleaved.R.C normalized signal,Norm_10 Average,0.924
same,Cdc6.R.V normalized signal,Norm_10 Average,0.962
same,Cdc42.R.C normalized signal,Norm_10 Average,0.966
same,Chk1.M.C normalized signal,Norm_10 Average,0.942
same,Chk1_pS296.R.V normalized signal,Norm_10 Average,0.948
same,Chk1_pS345.R.C normalized signal,Norm_10 Average,1.019
same,Chk2.M.V normalized signal,Norm_10 Average,0.971
same,Chk2_pT68.R.C normalized signal,Norm_10 Average,0.963
same,Claudin.7.R.V normalized signal,Norm_10 Average,1.252
same,Collagen.VI.R.V normalized signal,Norm_10 Average,1.085
same,Complex.II.Subunit.M.V normalized signal,Norm_10 Average,1.079
same,Connexin.43.R.C normalized signal,Norm_10 Average,1.004
same,Cox2.R.C normalized signal,Norm_10 Average,1.057
same,Creb.R.C normalized signal,Norm_10 Average,0.975
same,CtIP.R.V normalized signal,Norm_10 Average,0.953
same,Cyclin.B1.R.V normalized signal,Norm_10 Average,0.844
same,Cyclin.D1.R.C normalized signal,Norm_10 Average,1.008
same,Cyclin.D3.M.V normalized signal,Norm_10 Average,0.934
same,Cyclophilin.F.M.V normalized signal,Norm_10 Average,0.980
same,DAPK1_pS308.M.C normalized signal,Norm_10 Average,1.809
same,DAPK2.R.C normalized signal,Norm_10 Average,0.982
same,DDB.1.R.V normalized signal,Norm_10 Average,0.823
same,DDR1.R.V normalized signal,Norm_10 Average,1.020
same,DDR1_pY513.R.C normalized signal,Norm_10 Average,1.009
same,DJ1.R.V normalized signal,Norm_10 Average,0.997
same,DM.Histone.H3.R.V normalized signal,Norm_10 Average,0.900
same,DM.K9.Histone.H3.M.V normalized signal,Norm_10 Average,0.982
same,DNA.Ligase.IV.R.C normalized signal,Norm_10 Average,0.937
same,DNA_POLG.R.V normalized signal,Norm_10 Average,1.080
same,c.Jun_pS73.R.V normalized signal,Norm_10 Average,0.793
same,c.Kit.R.V normalized signal,Norm_10 Average,1.213
same,c.Met_pY1234_Y1235.R.V normalized signal,Norm_10 Average,0.933
same,c.Myc.R.C normalized signal,Norm_10 Average,1.350
same,cdc2_pY15.R.C normalized signal,Norm_10 Average,0.855
same,cdc25C.R.V normalized signal,Norm_10 Average,0.849
same,C.Raf.R.C normalized signal,Norm_10 replicates,1.081 and 0.699 and 0.805
same,C.Raf_pS338.R.V normalized signal,Norm_10 replicates,0.823 and 0.996
same,CA9.R.C normalized signal,Norm_10 replicates,0.873 and 0.916
same,CD2.M.C normalized signal,Norm_10 replicates,0.952 and 0.983 and 0.955
same,CD4.R.V normalized signal,Norm_10 replicates,0.995 and 0.882 and 0.915
same,CD5.M.C normalized signal,Norm_10 replicates,0.953 and 1.022
same,CD20.R.C normalized signal,Norm_10 replicates,0.859 and 1.349 and 1.680
same,CD26.R.V normalized signal,Norm_10 replicates,0.886 and 0.919 and 1.217
same,CD29.M.V normalized signal,Norm_10 replicates,0.978 and 0.970
same,CD31.M.V normalized signal,Norm_10 replicates,0.934 and 1.028 and 0.917
same,CD38.R.C normalized signal,Norm_10 replicates,1.013 and 0.750 and 1.046
same,CD44.R.C normalized signal,Norm_10 replicates,0.886 and 1.140
same,CD45.M.V normalized signal,Norm_10 replicates,0.989 and 0.991
same,CD49b.M.V normalized signal,Norm_10 replicates,1.113 and 1.053
same,CD68.M.C normalized signal,Norm_10 replicates,0.973 and 0.957
same,CD74.M.V normalized signal,Norm_10 replicates,0.883 and 1.031 and 0.993
same,CD134.R.V normalized signal,Norm_10 replicates,0.926 and 1.018 and 0.966
same,CD171.M.V normalized signal,Norm_10 replicates,0.567 and 1.011 and 0.915
same,CDK1_pT14.R.C normalized signal,Norm_10 replicates,0.950 and 0.703 and 1.011
same,CDK9.R.V normalized signal,Norm_10 replicates,0.925 and 1.065 and 0.973
same,CDKN2A.R.C normalized signal,Norm_10 replicates,0.890 and 1.007 and 0.992
same,CDT1.R.V normalized signal,Norm_10 replicates,0.844 and 1.019
same,CENP.A.R.V normalized signal,Norm_10 replicates,0.909 and 0.955
same,CHD1L.R.V normalized signal,Norm_10 replicates,0.986 and 0.996
same,CIITA.R.C normalized signal,Norm_10 replicates,0.878 and 1.138 and 1.266
same,COG3.R.V normalized signal,Norm_10 replicates,1.048 and 1.011 and 0.981
same,CRABP1.R.C normalized signal,Norm_10 replicates,0.873 and 1.131 and 0.976
same,CRABP2.R.V normalized signal,Norm_10 replicates,0.772 and 1.150 and 0.822
same,CREB_pS133.R.C normalized signal,Norm_10 replicates,1.250 and 0.794 and 1.214
same,CSK.R.C normalized signal,Norm_10 replicates,0.836
same,Calnexin.R.V normalized signal,Norm_10 replicates,0.966 and 1.158 and 0.937
same,Caspase.3.cleaved.R.C normalized signal,Norm_10 replicates,1.008 and 0.891 and 0.879
same,Caspase.7.cleaved..R.C normalized signal,Norm_10 replicates,0.971 and 1.258 and 0.862
same,Caspase.8.M.Q normalized signal,Norm_10 replicates,0.852 and 1.055
same,Caspase.8.cleaved.R.C normalized signal,Norm_10 replicates,0.985 and 0.881 and 0.907
same,Caveolin.1.R.V normalized signal,Norm_10 replicates,0.713 and 1.122 and 1.012
same,Cdc6.R.V normalized signal,Norm_10 replicates,0.858 and 0.962
same,Cdc42.R.C normalized signal,Norm_10 replicates,0.895 and 1.029 and 0.973
same,Chk1.M.C normalized signal,Norm_10 replicates,0.842 and 0.983 and 1.001
same,Chk1_pS296.R.V normalized signal,Norm_10 replicates,1.115 and 0.789 and 0.942
same,Chk1_pS345.R.C normalized signal,Norm_10 replicates,1.171 and 0.894 and 0.992
same,Chk2.M.V normalized signal,Norm_10 replicates,0.819 and 1.005
same,Chk2_pT68.R.C normalized signal,Norm_10 replicates,1.200 and 0.766 and 0.922
same,Claudin.7.R.V normalized signal,Norm_10 replicates,0.930 and 1.663 and 1.163
same,Collagen.VI.R.V normalized signal,Norm_10 replicates,1.420 and 0.935 and 0.899
same,Complex.II.Subunit.M.V normalized signal,Norm_10 replicates,0.889 and 1.275
same,Connexin.43.R.C normalized signal,Norm_10 replicates,1.260 and 0.815
same,Coup.TFII.R.C normalized signal,Norm_10 replicates,0.934 and 0.868
same,Cox2.R.C normalized signal,Norm_10 replicates,1.023 and 1.193 and 0.953
same,Cox.IV.R.V normalized signal,Norm_10 replicates,0.958 and 0.990 and 0.892
same,Creb.R.C normalized signal,Norm_10 replicates,1.051 and 0.927
same,CtIP.R.V normalized signal,Norm_10 replicates,1.000 and 0.898 and 0.962
same,Cyclin.B1.R.V normalized signal,Norm_10 replicates,0.661 and 0.815 and 1.055
same,Cyclin.D1.R.C normalized signal,Norm_10 replicates,0.958 and 1.081 and 0.985
same,Cyclin.D3.M.V normalized signal,Norm_10 replicates,0.818 and 0.939
same,Cyclin.E1.R.V normalized signal,Norm_10 replicates,0.893
same,Cyclophilin.F.M.V normalized signal,Norm_10 replicates,0.808 and 1.114 and 1.018
same,D.a.Tubulin.R.V normalized signal,Norm_10 replicates,0.881 and 0.967 and 0.966
same,DAPK1_pS308.M.C normalized signal,Norm_10 replicates,1.302 and 1.636 and 2.488
same,DAPK2.R.C normalized signal,Norm_10 replicates,0.965 and 1.028 and 0.953
same,DDB.1.R.V normalized signal,Norm_10 replicates,0.974 and 0.680 and 0.815
same,DDR1.R.V normalized signal,Norm_10 replicates,1.019 and 1.079 and 0.961
same,DDR1_pY513.R.C normalized signal,Norm_10 replicates,0.985 and 1.129 and 0.914
same,DJ1.R.V normalized signal,Norm_10 replicates,0.990 and 1.026 and 0.974
same,DM.Histone.H3.R.V normalized signal,Norm_10 replicates,0.928 and 0.824
same,DM.K9.Histone.H3.M.V normalized signal,Norm_10 replicates,0.889 and 1.013
same,DNA.Ligase.IV.R.C normalized signal,Norm_10 replicates,0.935 and 0.869 and 1.008
same,DNA_POLG.R.V normalized signal,Norm_10 replicates,1.018 and 1.199 and 1.023
same,c.Jun_pS73.R.V normalized signal,Norm_10 replicates,0.788 and 0.785 and 0.805
same,c.Kit.R.V normalized signal,Norm_10 replicates,1.136 and 1.324
same,c.Met_pY1234_Y1235.R.V normalized signal,Norm_10 replicates,0.975 and 0.946 and 0.879
same,c.Myc.R.C normalized signal,Norm_10 replicates,2.093 and 1.046
same,cGAS.R.V normalized signal,Norm_10 replicates,0.953 and 1.217 and 0.956
same,cdc2_pY15.R.C normalized signal,Norm_10 replicates,1.104 and 0.582 and 0.878
same,cdc25C.R.V normalized signal,Norm_10 replicates,0.721 and 0.808 and 1.017
same,MYH11.R.C Average,"Norm_20, normalized to Norm_0",1.248
same,Myosin.IIa.R.C Average,"Norm_20, normalized to Norm_0",1.147
same,Myosin.IIa_pS1943.R.V Average,"Norm_20, normalized to Norm_0",1.174
same,Myt1.R.C Average,"Norm_20, normalized to Norm_0",0.994
same,N.Cadherin.R.V Average,"Norm_20, normalized to Norm_0",0.988
same,N.Ras.M.V Average,"Norm_20, normalized to Norm_0",0.878
same,NAPSIN.A.R.C Average,"Norm_20, normalized to Norm_0",1.011
same,NDRG1_pT346.R.V Average,"Norm_20, normalized to Norm_0",1.336
same,NDUFB4.R.V Average,"Norm_20, normalized to Norm_0",1.022
same,NRF2.R.C Average,"Norm_20, normalized to Norm_0",0.907
same,Notch1.R.V Average,"Norm_20, normalized to Norm_0",0.937
same,Notch1.cleaved.R.V Average,"Norm_20, normalized to Norm_0",0.937
same,Notch3.R.C Average,"Norm_20, normalized to Norm_0",0.994
same,Oct.4.R.C Average,"Norm_20, normalized to Norm_0",1.121
same,P.Cadherin.R.C Average,"Norm_20, normalized to Norm_0",1.346
same,PAI.1.M.V Average,"Norm_20, normalized to Norm_0",0.985
same,PAICS.R.C Average,"Norm_20, normalized to Norm_0",0.928
same,PAK1.R.V Average,"Norm_20, normalized to Norm_0",0.872
same,PAK4.R.V Average,"Norm_20, normalized to Norm_0",0.993
same,PAK_pS474_S602_S560.R.V Average,"Norm_20, normalized to Norm_0",1.208
same,PAR.R.C Average,"Norm_20, normalized to Norm_0",2.108
same,PARG.R.C Average,"Norm_20, normalized to Norm_0",1.394
same,PARP.R.V Average,"Norm_20, normalized to Norm_0",1.133
same,PAX6.R.V Average,"Norm_20, normalized to Norm_0",0.967
same,PAX8.R.C Average,"Norm_20, normalized to Norm_0",0.941
same,PCNA.M.C Average,"Norm_20, normalized to Norm_0",0.869
same,PD.1.R.V Average,"Norm_20, normalized to Norm_0",0.984
same,PD.L1.R.C Average,"Norm_20, normalized to Norm_0",0.970
same,PDH.M.V Average,"Norm_20, normalized to Norm_0",0.925
same,PDHA1.R.V Average,"Norm_20, normalized to Norm_0",0.956
same,PDHK1.R.C Average,"Norm_20, normalized to Norm_0",0.952
same,PDK1.R.V Average,"Norm_20, normalized to Norm_0",1.116
same,PDK1_pS241.R.V Average,"Norm_20, normalized to Norm_0",0.965
